Assay results: patent US20110060268A1, “NAIL TREATMENT DEVICE” (POWER PAPER LTD., priority 2008, published 2011)
Structures can show the parent of a compound that is named as a salt.

Legend:
Format in all cases: in vivo, patients
[1] = Clinical trial: safety and tolerability of iontophoretic terbinafine delivery; conditions: terbinafine delivered into the nail with the iontophoretic device, nail onychomycosis
Procedure: (§1) A clinical trial was conducted to evaluate delivery of terbinafine HCl with an iontophoretic device according to an aspect of the present invention in patients with toenail onychomycosis. 38 patients suffering from distal and lateral subungual toenail onychomycosis were enrolled into the study and were divided randomly into group A (20 subjects) and group B (18 subjects). Onychomycosis was confirmed by both KOH examination and mycological culture, wherein samples were taken from the distal parts of the nail. Nail samples were divided, one part being used for direct KOH examination and the second part for fungal culture using Sabouraud's Dextrose agar (Novamed, Jerusalem, Israel). The identification of the fungus was done on the basis of morphologic characteristics. Group A was tested with 1% terbinafine HCl and an iontophoretic patch using a constant current density of 100 μA/cm^2. Group B was tested with 1% terbinafine HCl without iontophoresis. Treatment period was overnight wear, every day, five days per week, for 4 weeks. During the treatment period visits were conducted every 10 days (visits 2-4). The follow-up period was 10 weeks from the end of treatment (visit 5). At each visit nail photography and KOH examination were performed. […] Terbinafine content in affected nail samples was determined by clipping nails at visits 4 & 5. […] The eluted solution was analysed by HPLC.

[2] = test system: distal and lateral subungual toenail onychomycosis; experiment: Clinical trial in toenail onychomycosis: healthy toenail growth
Procedure: as §1

[3] = test system: fungal elements (KOH) in nail specimens; experiment: Clinical trial in toenail onychomycosis: KOH examination for fungal elements in nail specimens; conditions: 10 weeks following completion of treatment
Procedure: as §1

[4] = Terbinafine content in clipped nail samples by HPLC
Procedure: Group A was tested with 1% terbinafine HCl and an iontophoretic patch using a constant current density of 100 μA/cm^2. Group B was tested with 1% terbinafine HCl without iontophoresis. Treatment period was overnight wear, every day, five days per week, for 4 weeks. During the treatment period visits were conducted every 10 days (visits 2-4). The follow-up period was 10 weeks from the end of treatment (visit 5). At each visit nail photography and KOH examination were performed. Routine blood test; complete blood count and liver functions tests were performed at the before study initiation, at the end of the treatment and at the end of the follow-up period. Terbinafine content in affected nail samples was determined by clipping nails at visits 4 & 5. Nails were then weighed and cut into symmetric shapes in order to estimate their area. Symmetric shapes of nails were then cut into small pieces and inserted into tubes with 0.5 ml DDW. Subsequently, methanol 0.5 ml was added and tubes were sonicated. The eluted solution was analysed by HPLC.

Terbinafine nail content ([4]; end of follow up period (visit 5), active group A (iontophoretic patch)): 2.41 μg/cm^2 | Terbinafine nail content ([4]; end of follow up period (visit 5), passive group B (without iontophoresis)): 0.15 μg/cm^2 | Terbinafine nail content ([4]; visit 4, passive group B (without iontophoresis)): 1.34 μg/cm^2
SMILES: CN(C/C=C/C#CC(C)(C)C)Cc1cccc2ccccc12 [terbinafine, terbinafine HCl]
safety and tolerability [1]: safe and well tolerated | percentage of patients having healthy toenail growth above 1.5 mm at the end of treatment ([2]; group A: 1% terbinafine HCl with iontophoretic patch, constant current density 100 μA/cm^2, 4 weeks): 40% | percentage of patients having healthy toenail growth above 1.5 mm at the end of treatment ([2]; passive group B: 1% terbinafine HCl without current, 4 weeks): 11% | percentage of patients having fungal elements (KOH) in nail specimens ([3]; active group A (iontophoretic patch, 100 μA/cm^2)): 15% | percentage of patients having fungal elements (KOH) in nail specimens ([3]; passive group B (without iontophoresis)): 53%
